Like-named read-outs stand apart in the source and are kept apart here.
Assays:
[1] = Pharmacokinetic study in male Sprague-Dawley rats (IV and PO), plasma; type: in vivo, rat; conditions: for AUC(0-t) / Cmax at 5 min / half-life / AUC(0-inf): male, Sprague-Dawley; for AUC(0-t) / Cmax at 5 min / half-life / AUC(0-inf) / AUC—% Extrap—obs / Cl_obs / Vz_obs: rat plasma; for AUC(0-inf): read-out: AUCINF—obs; for F: rat
Description: Pharmacokinetic studies were conducted to estimate plasma concentrations obtained after oral gavage (PO) and intravenous (IV) single administration of compounds administered to male Sprague-Dawley rats. Six (6) rats were administered for each compound, route and dose, and plasma was collected at 12 timepoints over a 24 hr period for IV, and 12 timepoints over a 48 hr period for PO. Note that plasma was collected from only 3 animals per timepoint (n=3 for timepoints up to 10 hours, and n=3 for timepoints from 16 h to end of study). Dosing volumes were 5 mL/kg for IV and 10 mL/kg for PO gavage. IV compounds for administration were in solutions, whereas PO compounds were in solution or suspension.
(§1) The in-vivo study plasma samples were analyzed using Ultra Performance Liquid Chromatography (UPLC) with tandem mass spectrometry (MS/MS) detection in multiple reaction monitoring (MRM) mode. A generic bioanalytical method involving plasma sample extraction and cleanup by protein precipitation with acetonitrile was used followed by UPLC-MS/MS analysis.
(§2) A brief example of a generic bioanalytical UPLC-MS/MS method used for analysis of compounds in the in-vivo study plasma samples is as follows. Plasma samples were spiked with internal standard prior to extraction and cleanup by protein precipitation with ice cold acetonitrile containing 0.1% (v/v) ammonium hydroxide at a ratio of 3:1 (solvent:plasma) and centrifuged at 18213 rcf for 15 minutes at 4° C. to pellet precipitates. Aliquots of supernatants were transferred to a 96-well plate and evaporated to dryness at 40° C. under a stream of nitrogen gas. Samples were reconstituted in 50:50 acetonitrile/10 mM ammonium acetate buffer pH 8, mixed thoroughly and analyzed using Ultra Performance Liquid Chromatography (UPLC) with tandem mass spectrometry (MS/MS) detection in multiple reaction monitoring (MRM) mode. Matrix-matched calibration standards and quality control (QC) samples were prepared in naïve C57Bl/6 mouse plasma. The UPLC column used was Waters Acquity UPLC BEH C18 1.7 um, 2.1 mm×50 mm (with guard column). The UPLC mobile phase consisted of: Mobile phase A: 10 mM ammonium acetate in Water pH 8, and Mobile phase B: Acetonitrile. Separation was accomplished with a linear gradient of 5% mobile phase B to 95% mobile phase B in 2 min, and a flow rate of 0.35 mL/min. The MS/MS data acquisition was accomplished using 3 MRM Transitions in ESI+ mode. Parent ion mass 508.37 m/z-to-Daughter ions (m/z) 117.05, 232.13 and 270.22. The quantitation of concentrations in test samples was achieved by matrix-matched calibration with normalization using an internal standard. Data acquisition and analysis were performed using Waters MassLynx software with TargetLynx application manager.
(§3) Estimation of PK parameters was performed using independent noncompartmental model method by PHOENIX WinNonlin software.

[2] = Pharmacokinetic study in male Beagle dogs (IV and PO), plasma; type: in vivo, dog; conditions: for AUC—% Extrap—obs / Cl_obs / Vz_obs / AUC(0-t) / half-life / AUC(0-inf) / Cmax: dog plasma; for F: dog; for AUC(0-t) / half-life / AUC(0-inf) / Cmax: male, Beagle; for AUC(0-inf): read-out: AUCINF—obs; for Cmax: read-out: Cmax (5 min)
Description: Pharmacokinetic studies were conducted to estimate plasma concentrations obtained after oral gavage (PO) and intravenous (IV) single administration of compounds administered to separate groups of male Beagle dogs. Three (3) dogs were administered a compound via the intravenous (IV) route at 3 mg/kg and 2.5 mL/kg, and plasma was collected at 12 timepoints over a 24-hour period. Following a 7 days washout period, the same dogs were administered the same compound via PO at 10 mg/kg and 5 mL/kg, and plasma was collected at 12 timepoints over a 48-hour period.
as §1, §2, §3

## O=C(COc1cnc(N[C@H]2CC[C@@H](Oc3nc(N4CCOCC4)cc4ncccc34)CC2)nc1)N1CCOCC1 [Compound 61, 1-Morpholino-2-((2-(((1s,4s)-4-((7-morpholino-1,6-naphthyridin-5-yl)oxy)cyclohexyl)amino)pyrimidin-5-yl)oxy)ethan-1-one]
[1]; IV, 3 mg/kg
  AUC(0-t): 912 ng·h/mL
  Cmax at 5 min: 1600 ng/mL
  half-life: 1.49 h
  AUC(0-inf): 913 ng·h/mL
  AUC—% Extrap—obs: 0.10%
  Cl_obs: 54.761 mL/min/kg
  Vz_obs: 7.05679 L/kg
[1]; PO, 3 mg/kg
  AUC(0-t): 241 ng·h/mL
  Cmax at 5 min: 87.5 ng/mL
  half-life: 5.68 h
  AUC(0-inf): 330 ng·h/mL
  AUC—% Extrap—obs: 26.80%
  Cl_obs: 151.581 mL/min/kg
  Vz_obs: 74.5443 L/kg
  F: 26%
[1]; PO, 10 mg/kg
  AUC(0-t): 1070 ng·h/mL
  Cmax at 5 min: 235 ng/mL
  half-life: 2.64 h
  AUC(0-inf): 1220 ng·h/mL
  AUC—% Extrap—obs: 12.39%
  Cl_obs: 136.306 mL/min/kg
  Vz_obs: 31.192 L/kg
  F: 35%
[1]; PO, 30 mg/kg
  AUC(0-t): 5760 ng·h/mL
  Cmax at 5 min: 655 ng/mL
  half-life: 13.7 h
  AUC(0-inf): 15800 ng·h/mL
  AUC—% Extrap—obs: 63.5%
  Cl_obs: 31.6652 mL/min/kg
  Vz_obs: 37.65453 L/kg
  F: 63%
[2]; IV, 3 mg/kg
  AUC—% Extrap—obs: 0.79%
  Cl_obs: 14.338 mL/min/kg
  Vz_obs: 4.48058 L/kg
  AUC(0-t): 3480 ng·h/mL
  half-life: 3.64 h
  AUC(0-inf): 3500 ng·h/mL
  Cmax: 3700 ng/mL
[2]; PO, 10 mg/kg
  AUC—% Extrap—obs: 0.78%
  Cl_obs: 35.8008 mL/min/kg
  Vz_obs: 11.52897 L/kg
  F: 46%
  AUC(0-t): 5300 ng·h/mL
  half-life: 4.39 h
  AUC(0-inf): 5340 ng·h/mL
  Cmax: 1070 ng/mL

## CN1CCN(CCOc2cnc(N[C@H]3CC[C@@H](Oc4nc(N5CCOCC5)cc5ncccc45)CC3)nc2)CC1 [Compound 69, 5-(2-(4-Methylpiperazin-1-yl)ethoxy)-N-((1s,4s)-4-((7-morpholino-1,6-naphthyridin-5-yl)oxy)cyclohexyl)pyrimidin-2-amine]
[1]; IV, 3 mg/kg
  AUC(0-t): 488 ng·h/mL
  Cmax at 5 min: 183 ng/mL
  half-life: 4.82 h
  AUC(0-inf): 501 ng·h/mL
  AUC—% Extrap—obs: 2.61%
  Cl_obs: 99.8872 mL/min/kg
  Vz_obs: 41.64841 L/kg
[1]; PO, 3 mg/kg
  AUC(0-t): 305 ng·h/mL
  Cmax at 5 min: 27.2 ng/mL
  half-life: 2.81 h
  AUC(0-inf): 308 ng·h/mL
  AUC—% Extrap—obs: 1.07%
  Cl_obs: 162.417 mL/min/kg
  Vz_obs: 39.5678 L/kg
  F: 62%
[1]; PO, 10 mg/kg
  AUC(0-t): 1550 ng·h/mL
  Cmax at 5 min: 140 ng/mL
  half-life: 3.23 h
  AUC(0-inf): 1570 ng·h/mL
  AUC—% Extrap—obs: 1.16%
  Cl_obs: 106.252 mL/min/kg
  Vz_obs: 29.72118 L/kg
  F: 95%
[1]; PO, 30 mg/kg
  AUC(0-t): 5870 ng·h/mL
  Cmax at 5 min: 482 ng/mL
  half-life: 6.47 h
  AUC(0-inf): 5890 ng·h/mL
  AUC—% Extrap—obs: 0.37%
  Cl_obs: 84.9088 mL/min/kg
  Vz_obs: 47.52784 L/kg
  F: 120%
[2]; IV, 3 mg/kg
  AUC—% Extrap—obs: 23.94%
  Cl_obs: 32.4562 mL/min/kg
  Vz_obs: 37.41197 L/kg
  AUC(0-t): 1180 ng·h/mL
  half-life: 13.3 h
  AUC(0-inf): 1560 ng·h/mL
  Cmax: 397 ng/mL
[2]; PO, 10 mg/kg
  AUC—% Extrap—obs: 9.05%
  Cl_obs: 27.6643 mL/min/kg
  Vz_obs: 32.69379 L/kg
  F: 143%
  AUC(0-t): 5640 ng·h/mL
  half-life: 13.8 h
  AUC(0-inf): 6220 ng·h/mL
  Cmax: 291 ng/mL

## CN(C)C(=O)Cn1ccc2nc(N[C@H]3CC[C@@H](Oc4nc(N5CCOCC5)cc5ncccc45)CC3)ncc21 [Compound 86, N,N-Dimethyl-2-(2-(((1s,4s)-4-((7-morpholino-1,6-naphthyridin-5-yl)oxy)cyclohexyl)amino)-5H-pyrrolo[3,2-d]pyrimidin-5-yl)acetamide]
[1]; IV, 3 mg/kg
  AUC(0-t): 371 ng·h/mL
  Cmax at 5 min: 886 ng/mL
  half-life: 0.67 h
  AUC(0-inf): 374 ng·h/mL
  AUC—% Extrap—obs: 0.91%
  Cl_obs: 133.623 mL/min/kg
  Vz_obs: 7.72522 L/kg
[1]; PO, 3 mg/kg
  AUC(0-t): 71.6 ng·h/mL
  Cmax at 5 min: 28.2 ng/mL
  half-life: 2.59 h
  AUC(0-inf): 78.4 ng·h/mL
  AUC—% Extrap—obs: 8.66%
  Cl_obs: 637.8442 mL/min/kg
  Vz_obs: 142.79445 L/kg
  F: 19%
[1]; PO, 10 mg/kg
  AUC(0-t): 1290 ng·h/mL
  Cmax at 5 min: 203 ng/mL
  half-life: 2.39 h
  AUC(0-inf): 1490 ng·h/mL
  AUC—% Extrap—obs: 13.08%
  Cl_obs: 111.962 mL/min/kg
  Vz_obs: 23.13291 L/kg
  F: 105%
[1]; PO, 30 mg/kg
  AUC(0-t): 14100 ng·h/mL
  Cmax at 5 min: 1600 ng/mL
  half-life: 1.26 h
  AUC(0-inf): 14100 ng·h/mL
  AUC—% Extrap—obs: 0.0%
  Cl_obs: 35.5335 mL/min/kg
  Vz_obs: 3.87755 L/kg
  F: 379%
[2]; IV, 3 mg/kg
  AUC—% Extrap—obs: 5.80%
  Cl_obs: 28.2873 mL/min/kg
  Vz_obs: 28.9956 L/kg
  AUC(0-t): 1730 ng·h/mL
  half-life: 13.1 h
  AUC(0-inf): 1850 ng·h/mL
  Cmax: 1730 ng/mL
[2]; PO, 10 mg/kg
  AUC—% Extrap—obs: 0.51%
  Cl_obs: 28.6397 mL/min/kg
  Vz_obs: 6.54871 L/kg
  F: 105%
  AUC(0-t): 6090 ng·h/mL
  half-life: 2.62 h
  AUC(0-inf): 6130 ng·h/mL
  Cmax: 1540 ng/mL
